For orientation: EC50 means the concentration that produces a half-maximal response.

The assay deals with T1, Muscarinic acetylcholine receptor M4 (Rattus norvegicus, UniProt P08485).
T1 sequence (P08485 whole entry): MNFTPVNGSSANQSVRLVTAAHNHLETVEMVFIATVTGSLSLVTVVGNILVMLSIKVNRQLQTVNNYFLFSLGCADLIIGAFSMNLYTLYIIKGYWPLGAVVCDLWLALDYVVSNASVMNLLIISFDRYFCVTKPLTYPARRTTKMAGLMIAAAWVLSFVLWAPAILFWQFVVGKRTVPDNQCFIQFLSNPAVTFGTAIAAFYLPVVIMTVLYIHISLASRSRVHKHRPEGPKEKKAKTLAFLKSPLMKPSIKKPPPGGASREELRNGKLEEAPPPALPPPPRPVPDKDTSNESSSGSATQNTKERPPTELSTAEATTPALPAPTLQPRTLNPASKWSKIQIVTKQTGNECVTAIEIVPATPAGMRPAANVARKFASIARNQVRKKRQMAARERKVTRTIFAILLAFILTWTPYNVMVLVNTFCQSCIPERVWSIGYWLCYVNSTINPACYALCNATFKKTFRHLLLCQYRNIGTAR
Nature of the assay: potentiation of rat muscarinic M4 receptor – cell-based, analogs, SAR follow-up (AID 1938).
As for `Cc1cc(C)c2c(N)c(C(=O)NCc3ccc4c(c3)OCO4)sc2n1` [3-amino-4,6-dimethyl-N-piperonyl-thieno[2,3-b]pyridine-2-carboxamide], the EC50 is 0.403 µM.

In the case of `COc1ccc(CNC(=O)c2sc3nc(OCc4ccncc4)cc(C)c3c2N)cc1` [3-amino-4-methyl-N-p-anisyl-6-(4-pyridylmethoxy)thieno[2,3-b]pyridine-2-carboxamide], the EC50 came to 1.96 µM.

As to `Cc1cc(OCc2ccncc2)nc2sc(C(=O)NCc3cccc(F)c3F)c(N)c12` [3-amino-N-(2,3-difluorobenzyl)-4-methyl-6-(4-pyridylmethoxy)thieno[2,3-b]pyridine-2-carboxamide], the EC50 amounted to 1.67 µM.

(Values after BindingDB's records for doi:10.7270/Q2XD103V (Vanderbilt Screening Center for GPCRs, Ion Channels and …, 2010).)
